# Data from PubChem BioAssay (NCI).
#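 How tested: cells in 96-well plates exposed to compound for 48 hours at five concentrations. Definition used: TGI = concentration required for complete inhibition of growth.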
# Legend:
# Assay in all cases: inhibition of tumour cell growth, NCI panel, 48 h
# [1] = tested on: CAKI-1 renal
# [2] = tested on: MALME-3M melanoma
# [3] = tested on: IGROV1 ovarian
# [4] = tested on: UACC-257 melanoma
# [5] = tested on: HCC-2998 colon
# [6] = tested on: SNB-75 CNS
# [7] = tested on: ACHN renal
# [8] = tested on: RPMI-8226 leukemia
# [9] = tested on: UO-31 renal
# [10] = tested on: SK-MEL-2 melanoma
SMILES,TGI [1],TGI [2],TGI [3],TGI [4],TGI [5],TGI [6],TGI [7],TGI [8],TGI [9],TGI [10]
OCCOc1ccc(-c2cc(-c3ccccn3)nc(-c3ccccn3)c2)cc1,17.7 µM,17.5 µM,> 100 µM,12.9 µM,> 18.4 µM,26.1 µM,3.78 µM,> 96.7 µM,1 µM,3.48 µM
Nc1ncnc2c1ncn2C1OC(COP(=O)(O)CP(=O)(O)O)C(O)C1O (stereo not given),> 100 µM,> 100 µM,> 100 µM,> 100 µM,> 100 µM,> 100 µM,> 100 µM,> 100 µM,> 100 µM,> 100 µM
